The record followed here is the METLIN SMRT retention time set (Domingo-Almenara et al. 2019).

The series is described as follows: gradient 5% acetonitrile 3 min, to 50% in 2 min, to 85% in 15 min, held 3 min, 100 µL/min. The following applies: column: Zorbax Extend-C18 2.1 x 50 mm; eluents: water / acetonitrile, 0.1% formic acid. A digest of the protocol:
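Data were gathered over 3 months by HPLC coupled to a quadrupole time-of-flight mass spectrometer, operated in positive and negative ionization mode. Mixtures of ~100 pure standards ran on a Zorbax Extend-C18 column (2.1 × 50 mm, 1.8 μm) at 100 μL/min, with water and acetonitrile each containing 0.1% formic acid and dead and dwell volumes of 40 μL and 900 μL. Retention time was read from adduct peaks picked by computer and checked manually.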
In the case of `Cn1cc(C(=O)Nc2ccc(N3CCOCC3)cc2)c2cccnc21`, the RP-LC retention time is 658 s.

The compound `COc1ccc(S(=O)(=O)Cc2nc(-c3cccc(Cl)c3)no2)cc1` yielded an RP-LC retention time of 1020 s.

Compound `O=C(Nc1cccnc1)N1CCC(Cc2cccc(Oc3ccc(C(F)(F)F)cn3)c2)CC1` returned an RP-LC retention time of 866 s. The figure for `Cc1csc(-c2cc(S(=O)(=O)N3CCCC3)cn2CC(=O)N2CCCC2)n1` is 803 s. The figure for `COc1ccc(C2CC(=O)N(c3ccc(C)c(F)c3)C(=O)C2)cc1OC` is 867 s; for `COc1ccc(N2CCN(CC(O)COc3c(C)cccc3C)CC2)cc1` (stereo not given) it is 698 s; for `CON(C)C(=O)C1CN(C(=O)COc2ccccc2F)C1` it is 629 s. The same measure for `CCc1nccn1Cc1nc(-c2ccc(OC)cc2)no1`: 620 s; for `CCc1ccc(NC(=O)c2c(C)oc3nc(C)nc(N4CCCC4)c23)cc1`: 830 s.

In turn, `Cc1cc2c(cc1CNC(=O)c1ccco1)OCCCO2` showed an RP-LC retention time of 750 s.

As to `Cc1nn(CC(=O)NCCN2CCCCC2C)c(=O)c2nc(-c3ccccc3)sc12` (stereo not given), the RP-LC retention time came out at 645 s. The figure for `Cc1nc(N2CCCCC2)cc(N2CCN(C(=O)c3ccc(Br)o3)CC2)n1` is 689 s; for `CCOC(=O)c1c(C)[nH]c(CN(Cc2ccc3c(c2)OCO3)C(=O)c2ccco2)c1C` it is 991 s.

As to `O=C(NCc1ccccn1)C1CCc2sc(C(=O)N3CCCC3)cc2C1` (stereo not given), the RP-LC retention time is 518 s. `CCc1nc(OCC(=O)Nc2cc(Cl)ccc2Cl)c2ccccc2n1` registered an RP-LC retention time of 964 s.

The compound `O=C(O)c1cc(N2CCN(CC(=O)N3CCCCCC3)CC2)ccc1NC(=O)C1CC1` came in with an RP-LC retention time of 615 s. The figure for `CCn1cc(S(=O)(=O)N2[C@H]3CC[C@@H]2c2cnc(-c4ccc(F)cc4)nc2C3)cn1` is 900 s; for `CCOc1ccc(-c2nc(-c3ccc4oc(CC)nc4c3)no2)cc1` it is 1280 s; for `Cc1nnc(NC(=O)c2cc(C3CC3)n(C3CCS(=O)(=O)C3)n2)s1` (stereo not given) it is 646 s. The figure for `COc1cccc(NC(=O)Cn2c(C)cc(-c3nnc(-c4ccccc4)o3)c2C)c1` is 921 s.

`O=C(C1CC(=O)N(c2ccccc2)C1)N1CCSCC1` (stereo not given): the RP-LC retention time turned out to be 828 s. Consider `CCN1C(=O)COc2ccc(-c3csc(NC(=O)c4cccc(C)c4)n3)cc21`, for which the RP-LC retention time was 1050 s. The figure for `CCc1ccc(NS(=O)(=O)c2cc3n(c2)CCCN(C)C3=O)cc1` is 739 s.

As to `O=C(CCS(=O)(=O)c1ccccc1)Nc1cc(-c2ccccc2)nn1CCO`, the RP-LC retention time stood at 695 s. The figure for `CC1Cc2cc(-c3cc(CC(=O)Nc4nc5ccccc5[nH]4)no3)ccc2O1` (stereo not given) is 657 s; for `CCn1cc(S(=O)(=O)Nc2ccc(C)cc2F)c2cccnc21` it is 869 s; for `CS(=O)(=O)Nc1ccc(C2(C(=O)NCc3ccc(F)cc3)CCCCC2)cc1` it is 897 s. The same measure for `CC1=NS(=O)(=O)N(Cc2ccccc2)C=C1C(=O)OCc1cc(C)ccc1C`: 1200 s; for `Cc1ccccc1CNC(=O)CN1C(=O)CCCc2cc(S(=O)(=O)N3CCCCC3)ccc21`: 911 s. The figure for `COc1cccc(-c2ccc(=O)n(Cc3nc(-c4cccc(OC)c4)no3)n2)c1` is 682 s; for `Cc1ccc(NC(=O)Cn2c(N)nc(C)cc2=O)cc1` it is 577 s; for `CCC(C)NC(=O)c1ccc(CN2CCN(Cc3ccc(F)cc3)C(=O)C2=O)cc1` (stereo not given) it is 739 s.

In the case of `O=C(Nc1ccc(F)cc1)N1CCC(n2cnc3c(Cl)cccc3c2=O)CC1`, the RP-LC retention time was determined as 805 s. The figure for `O=C(NCc1ccco1)c1ccc2c(c1)CC(=O)N2Cc1ccc(F)cc1` is 794 s; for `O=C(Nc1ccc(CN2CCCCC2)cc1)C1CCCN(c2ncnc3c2nc2n3CCCCC2)C1` (stereo not given) it is 1050 s; for `Cn1cnc2c(C(=O)NC3CCCCC3)nn(-c3ccccc3)c2c1=O` it is 855 s.

For the compound `O=C(O)c1ccc(NCCCO)c([N+](=O)[O-])c1`, the RP-LC retention time is 587 s.

Take `O=C(Nc1ccc2c(c1)OCCO2)N1CCN(c2cc(-c3ccccc3)ncn2)CC1`: the RP-LC retention time was 645 s. With `COc1ccc(Cl)cc1NC(=O)c1cccn1-c1cccnc1`, the RP-LC retention time was 887 s.

`COc1ccccc1NC(=O)NCCc1nc2cccnc2n1C1CCCCC1`: the RP-LC retention time was found to be 743 s. The figure for `O=C(CC1CCCCN1S(=O)(=O)c1ccccc1)Nc1cc(F)ccc1F` (stereo not given) is 887 s; for `Clc1cc(Br)ccc1-c1ccc(CNCc2cccnc2)o1` it is 664 s; for `O=S(=O)(NCC1(O)CCOCC1)c1ccc2c(c1)CCCC2` it is 688 s. The figure for `CN1C(=O)c2cc(C(=O)NCCN3CCCCCC3)nn2CC1(C)C(=O)NCc1ccccc1` (stereo not given) is 608 s; for `Clc1cc2c(nn1)Nc1ccccc1S2` it is 892 s; for `Cc1cc2c(N3CCCC(C(=O)NCc4ccc(F)cc4F)C3)nccc2s1` (stereo not given) it is 700 s. The figure for `Cc1ccc(NC(=O)C(=O)NC(C)c2ccccc2)cc1C` (stereo not given) is 1010 s; for `CCN1C(=O)COc2ccc(-c3nc(NC(=O)c4cccc(Br)c4)sc3C)cc21` it is 1150 s. For the compound `CN(C)c1cccc(C(=O)Nc2ccc(-c3nnc4n3CCCC4)cc2)c1`, the RP-LC retention time was determined as 736 s. Regarding `COc1ccccc1-c1noc(CCc2nnc3ccc(N4CCN(Cc5ccccc5)CC4)nn23)n1`, the RP-LC retention time stood at 616 s.

Consider `O=C(c1ccncn1)N1CC(n2cnnc2C2CCCO2)C1` (stereo not given), for which the RP-LC retention time is 580 s. The compound `O=c1ccn(-c2ccc(Cl)cc2)nc1-c1nc(-c2ccccc2OCc2ccccc2)no1` showed an RP-LC retention time of 845 s. In turn, `Cc1ccc(Sc2ccc(N3CCCC(C(=O)N4CCN(c5ccccn5)CC4)C3)nn2)cc1` (stereo not given) returned an RP-LC retention time of 659 s. For the compound `COc1cccc(-c2c(C(=O)O)nnn2-c2ccc(OC)c(OC)c2)c1`, the RP-LC retention time was determined as 715 s.

Take `CCc1nnc(-c2ccc3ccn(CC(=O)N4CCN(c5cccc(OC)c5)CC4)c3c2)o1`: the RP-LC retention time was 864 s. As to `CCn1cc(C)c(C(=O)O)c1CC(=O)Nc1cccc(C)n1`, the RP-LC retention time was found to be 678 s.

As to `Clc1ccc(-c2nc(NC3CCCCCC3)c3ccccc3n2)cc1`, the RP-LC retention time amounted to 1030 s. The figure for `CCc1sc(NC(=O)Cn2nc3c(cc2=O)CCCC3)nc1C(=O)OC` is 764 s; for `Cc1cc(C)cc(C(=O)Nc2ccc(N3CCN(c4ccccc4)C3=O)nc2)c1` it is 1050 s; for `Cc1cc2nc(C(=O)Nc3ccc(C)c(C)c3)cc(C)n2n1` it is 1090 s.

`Cc1ccc(S(=O)(=O)N2CCC3(CC2)NCCN=C3NCc2ccccc2C)c(C)c1` came in with an RP-LC retention time of 788 s. The figure for `Cc1ccc(C2=NC(c3ccc([N+](=O)[O-])cc3)SC(N3CCOCC3)=N2)cc1` (stereo not given) is 642 s; for `CCOc1ccc(-c2cc3c(=O)n(Cc4nc(-c5ccc(Cl)c(F)c5)no4)ncn3n2)cc1` it is 1270 s; for `CCOc1ccc(-c2noc(CN3C(=O)COc4cc(Cl)ccc43)n2)cc1` it is 1180 s. The same measure for `CCc1nnc(NC(=O)CSc2nnc(Cn3c(=O)sc4ccccc43)n2C)s1`: 658 s.

For the compound `c1ccc(-c2nc(C3CCN(Cc4cccs4)C3)no2)nc1` (stereo not given), the RP-LC retention time stood at 583 s. The same measure for `O=C(Cn1ncc2c(c1=O)N(C1CC1)C(=O)CS2)Nc1ccc2c(c1)OCCO2`: 693 s; for `O=C(Cn1ccc2c(SCc3ccccc3)nccc21)N1CCN(c2ccccn2)CC1`: 577 s. `CC(C)Cn1c(=O)c(N2CCN(C(=O)CSc3ccccc3)CC2)nc2ccncc21` yielded an RP-LC retention time of 724 s.

Consider `O=C(COc1ccc(F)cc1)N1CCN(c2ccc(=O)n(-c3ccc(Cl)cc3)n2)CC1`, for which the RP-LC retention time came to 874 s. The figure for `COc1ccc(CN2C=C(C(=O)OCc3nc(-c4ccccc4F)no3)C(C)=NS2(=O)=O)cc1` is 1060 s; for `O=C(CSc1cc(-n2cccn2)ncn1)Nc1ccccc1Br` it is 965 s. The compound `Cc1ccc(S(=O)(=O)c2cnc(N3CCN(c4cccc(Cl)c4)CC3)nc2N)cc1` registered an RP-LC retention time of 1190 s. With `CC(=O)c1cc2c(cc1NC(=O)c1ccc(COc3ccccc3)o1)OCO2`, the RP-LC retention time is 1080 s. In the case of `CC1CCN(c2ncc3c(n2)CCC(C(=O)NCc2nc4ccccc4n2C)C3)CC1` (stereo not given), the RP-LC retention time turned out to be 625 s.

Take `CCC(=O)N1CCc2cc(-c3ccc(C(=O)NCCCN4CCOCC4)cc3)ccc21`: the RP-LC retention time turned out to be 628 s. In the case of `CCn1c(CCNC(=O)c2ccccc2F)nc2cccnc21`, the RP-LC retention time is 602 s.

As for `Cc1noc(C2CN(CCc3ccccc3)CC23CCCC3)n1` (stereo not given), the RP-LC retention time is 674 s. The figure for `COc1ccc(N2CC(c3nc(-c4ccc(Cl)cc4)no3)CC2=O)cc1OC` (stereo not given) is 947 s; for `O=C(N[C@H]1C[C@@H]2C[C@H]1CN2C(=O)c1ccccc1Cl)c1cccs1` it is 701 s.
